Test results from patent publication US20070196359A1, “Halosuccinimide biocide” (Minntech Corporation, priority 2006, published 2007).

What was measured:
[1] = Stability of the biocide solution over time, active ingredient by iodometric titration (FIG. 3); type: physicochemical
Description: The NBS biocide solution included about 1.0% NBS, 0.19% surfactant L-44 and was at a pH of about 3. The NCS biocide solution included about 1.0% NCS, 0.19% surfactant and was at a pH of about 3.

[2] = test system: B. subtilis bacterial spores; experiment: Efficacy against bacterial endospores (FIG. 1); type: cell-based
Procedure: The NCS biocide solution included about 1% NCS and was buffered at a pH of about 4. The NBS biocide solution included about 1% NBS and was buffered at pH about 3. […] In the case of NCS, a total kill corresponding to a 6 log reduction occurred over a period of approximately 30 minutes. In the case of NBS, a total kill corresponding to a 6 log reduction occurred over a period of approximately 60 minutes.

M. terrae mycobacteria = experiment: Efficacy against mycobacteria (FIG. 2); type: cell-based; details: for time to total kill of mycobacteria: pH 7.4
Procedure: The NCS biocide solution included about 1% NCS, was buffered at a pH of about 4 and was tested at 20° C. The NBS biocide solution included about 1% NBS, was buffered at a pH of about 3 and was tested at 20° C. Each solution produced a total kill corresponding to a 6 log reduction of the mycobacteria.

[3] = about 1% NBS, buffered at pH about 3, 20° C
[4] = about 1% NCS, buffered at pH about 4, 20° C

Row | SMILES | stability over time ([1]; about 1.0% NBS, 0.19% surfactant L-44, pH about 3, increasing amounts of succinimide added, best at 9.0%) | period to total kill (6 log reduction) [2, 3] | total kill, log reduction in the bacteria [2, 3] [log] | time to total kill (M. terrae mycobacteria; [3]) | total kill, log reduction of the mycobacteria (M. terrae mycobacteria; [3]) [log] | time to total kill of mycobacteria (M. terrae mycobacteria) | stability over time compared to NCS alone ([1]; about 1.0% NCS, 0.19% surfactant, pH about 3, 4.8% succinimide added) | period to total kill (6 log reduction) [2, 4] | total kill, log reduction in the bacteria [2, 4] [log] | time to total kill (M. terrae mycobacteria; [4]) | total kill, log reduction of the mycobacteria (M. terrae mycobacteria; [4]) [log]
1 | O=C1CCC(=O)N1Br [NBS, N-bromosuccinimide] | improved stability over time | approximately 60 minutes | 6 | about 30 seconds | 6 | about 175 seconds | – | – | – | – | –
2 | O=C1CCC(=O)N1Cl [NCS, N-chlorosuccinimide] | – | – | – | – | – | about 90 seconds | improved stability | approximately 30 minutes | 6 | about 30 seconds | 6
